Where a name gives a salt, the structure may show the parent alone.
What was measured:
[1] = Temperature/relative humidity-related stability (validated HPLC assay, XRPD); type: physicochemical
Excerpt: 3 Sample batches of the compound were stored under the conditions of the study as stated in the table below. The assay was done by a validated HPLC method.

[2] = test system: broad spectrum of microorganisms including antibiotic-resistant strains of Staphylococcus aureus, more particularly glycopeptide-resistant staphylococci; details: incl. antibiotic-resistant S. aureus; cited from earlier work
[3] = in vivo; cited from earlier work
[4] = Conversion of monohydrate to tetrahydrate under ambient conditions, by XRPD; type: physicochemical; details: ambient temperature (35° C.) and relative humidity (60%)
Description: X-ray diffraction analyses (40 kv x 40 mA Rigaku D/max 2200) were performed under the conditions listed below: • Scan speed 5°/min or 20°/min • Sampling time 7 min or 2 min • Scan mode: continuous • 2θ/θ reflection • Cu target (Ni filter)

C[C@H]1CCc2c(N3CCC(O)CC3)c(F)cc3c(=O)c(C(=O)O)cn1c23 [S-(−)-9-fluoro-6,7-dihydro-8-(4-hydroxypiperidin-1-yl)-5-methyl-1-oxo-1H,5H-benzo[i,j]quinolizine-2-carboxylic acid L-arginine salt tetrahydrate]
HPLC assay on storage ([1]; 25° C./60% relative humidity, 3 months): 99.22%
HPLC assay on storage ([1]; 25° C./60% relative humidity, Initial): 99.31%
HPLC assay on storage ([1]; 40° C./75% relative humidity, 1 month): 99.30%
HPLC assay on storage ([1]; 40° C./75% relative humidity, 2 months): 99.25%
HPLC assay on storage ([1]; 40° C./75% relative humidity, 3 months): 99.27%
HPLC assay on storage ([1]; 40° C./75% relative humidity, Initial): 99.31%
Crystallinity on storage as seen by XRPD spectra ([1]; storage conditions of the stability study): underwent no changes

C[C@H]1CCc2c(N3CCC(O)CC3)c(F)cc3c(=O)c(C(=O)O)cn1c23.N=C(N)NCCC[C@H](N)C(=O)O [S-(−)-9-fluoro-6,7-dihydro-8-(4-hydroxypiperidin-1-yl)-5-methyl-1-oxo-1H,5H-benzo[i,j]quinolizine-2-carboxylic acid L-arginine salt]
Efficacy against microorganisms in mammals [2]: effective against a broad spectrum of microorganisms
Overall tolerability [3]: excellent overall tolerability

C[C@H]1CCc2c(N3CCC(O)CC3)c(F)cc3c(=O)c(C(=O)O)cn1c23.N=C(N)NCCC[C@H](N)C(=O)O [monohydrate, S-(−)-9-fluoro-6,7-dihydro-8-(4-hydroxypiperidin-1-yl)-5-methyl-1-oxo-1H,5H-benzo[i,j]quinolizine-2-carboxylic acid L-arginine salt]
Physical stability / moisture absorption [4]: highly unstable and rapidly absorbs moisture
Time until XRPD spectra change towards tetrahydrate [4]: ≤ 20 min

Reference: US7164023B2, “Benzoquinolizine-2-carboxylic acid arginine salt tetrahydrate” (priority 2003, dated 2007)
